Experimental findings from paper PMC10687260, “1,3-Diphenylureido hydroxamate as a promising scaffold for generation of potent antimalarial histone deacetylase inhibitors” (Scientific Reports, 2023) are described below.

Data set [1] relates to HepG2 cells. In words: Cytotoxicity in human HepG2 cells (WST-1). Format: cell-based. To be noted: Homo sapiens, HepG2; 48 h, WST-1; read-out: IC50 HepG2. Summed up:
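HepG2 cells (10^4/well, seeded overnight) were exposed to two-fold serial compound dilutions in fresh medium, then given WST-1 for 4 h. Formazan absorbance at 450 nm, with 630 nm background, was scaled 0–100% against untreated and DMSO controls.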

For data set [2], the target named is T1, PfHDAC1 (Plasmodium falciparum, UniProt Q7K6A1).
T1 construct: purchased BPS Bioscience (San Diego, CA)
T1 sequence (Q7K6A1 1-449): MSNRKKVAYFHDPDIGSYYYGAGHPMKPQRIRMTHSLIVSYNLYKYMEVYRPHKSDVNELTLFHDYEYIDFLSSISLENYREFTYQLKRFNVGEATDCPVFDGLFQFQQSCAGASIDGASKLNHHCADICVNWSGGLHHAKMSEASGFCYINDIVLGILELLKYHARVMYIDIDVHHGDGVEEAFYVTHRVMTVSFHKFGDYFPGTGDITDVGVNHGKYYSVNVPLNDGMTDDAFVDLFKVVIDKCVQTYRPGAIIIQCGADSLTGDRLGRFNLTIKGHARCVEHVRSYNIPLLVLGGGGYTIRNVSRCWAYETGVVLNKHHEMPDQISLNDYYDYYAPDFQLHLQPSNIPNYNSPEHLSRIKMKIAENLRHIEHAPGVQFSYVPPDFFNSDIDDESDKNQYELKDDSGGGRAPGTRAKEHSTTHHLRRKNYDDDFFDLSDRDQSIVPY
In words: In vitro PfHDAC1 enzymatic assay. The conditions noted are these: for inhibition at 1 µM / inhibition at 10 µM: recombinant PfHDAC1. Format: biochemical. How it is done: In vitro PfHDAC1 enzymatic assay. PfHDAC inhibition assays were performed by BPS Bioscience (San Diego, CA). […] Then, each DMSO solution was directly diluted 10 × fold into the HDAC assay buffer for an intermediate dilution of 10% DMSO in HDAC assay buffer. Then, 5 µL of the intermediate dilution was added to a 50 µL reaction so that the final concentration of DMSO is 1% in all the reactions. […] Fluorescence intensity was measured at an excitation of 360 nm and an emission of 460 nm using a Tecan Infinite M1000 microplate reader. […] The fluorescent intensity data were analyzed using GraphPad Prism (v9.5.2). In the absence of the compound, the fluorescent intensity (Ft) in each data set was defined as 100% activity. In the absence of HDAC, the fluorescent intensity (Fb) in each data set was defined as 0% activity. The percent activity in the presence of each compound was calculated according to the following equation: % activity = (F-Fb)/(Ft-Fb), where “F” is the fluorescent intensity in the presence of the compound.

In data set [3] the test system is acetylated histone H4. Briefly: Western blot of acetylated histone H4 in infected erythrocytes. Format: cell-based, Plasmodium falciparum. The conditions noted are these: 10 × IC50 for 4 h, trophozoites, vs DMSO. Here is the method:
Figure 5 Hydroxamic acid derivatives as potent in vitro PfHDAC1 inhibitors. […]. Enzyme activity was calculated by normalizing the data against the DMSO treated samples and discounting the background. Data are presented as shown above, with mean ± S.D. (n = 2). […]. Comparison of group/concentration against the DMSO control is represented as † for P < 0.0001. […]. Numbers on side of the bands represent the predicted mass (kDa) for each protein. (C,D) Band quantification of histone H3 (C) and H4 (D), respectively, normalizing their acetylated detection against their unmodified version. Differences to this value were analyzed by one way ANOVA using the Dunnett’s post correction, comparing each group against the DMSO control, as rank tests where P values are explicitly depicted.
Western Blot analysis. […]. Proteins were transferred to PVDF membranes, 5% non-fat dry milk in TBS with Tween 20 (0.1%) was used as blocking agent for 1 h at room temperature. After, incubated with the antibodies overnight at 4 °C (Acetyl Histone H3 Lys9 C5B11 Cell Signaling, Acetyl Histone H4 Lys16 E2B8W Cell Signaling, Histone H3 96C10 Cell Signaling and Histone H4 D2X4V Cell Signaling). For the analysis of protein acetylation levels, the membranes were stripped and re-probed with the corresponding anti-total protein. Mouse monoclonal anti-α-Tubulin (B512 Sigma-Aldrich) was used as loading control. Detection was performed by enhanced chemiluminescence using horseradish peroxidase-conjugated secondary antibodies (Vector Laboratories, Burlingame, CA, USA) and SuperSignal TM West Pico PLUS Chemiluminescent substrate kit (Thermo Scientific). Images were acquired using ChemiDoc TM Imaging System (BioRad Laboratories, CA, USA). Quantitative densitometry was carried out using ImageLab software (Bio-Rad Laboratories, CA, USA). The volume density of the chemiluminescent bands was calculated as an integrated optical density × mm^2 after background correction from each independent experiment (N = 3).
(In general: A western blot detects proteins with antibodies after separation by electrophoresis.)

The target of data set [4] is T2, CYP1A2 (Homo sapiens, UniProt P05177).
T2 construct: 10 μM compound was incubated with human liver microsomes and selective marker substrates; from tissue; host or cells: human liver microsomes
T2 sequence (P05177 1-516): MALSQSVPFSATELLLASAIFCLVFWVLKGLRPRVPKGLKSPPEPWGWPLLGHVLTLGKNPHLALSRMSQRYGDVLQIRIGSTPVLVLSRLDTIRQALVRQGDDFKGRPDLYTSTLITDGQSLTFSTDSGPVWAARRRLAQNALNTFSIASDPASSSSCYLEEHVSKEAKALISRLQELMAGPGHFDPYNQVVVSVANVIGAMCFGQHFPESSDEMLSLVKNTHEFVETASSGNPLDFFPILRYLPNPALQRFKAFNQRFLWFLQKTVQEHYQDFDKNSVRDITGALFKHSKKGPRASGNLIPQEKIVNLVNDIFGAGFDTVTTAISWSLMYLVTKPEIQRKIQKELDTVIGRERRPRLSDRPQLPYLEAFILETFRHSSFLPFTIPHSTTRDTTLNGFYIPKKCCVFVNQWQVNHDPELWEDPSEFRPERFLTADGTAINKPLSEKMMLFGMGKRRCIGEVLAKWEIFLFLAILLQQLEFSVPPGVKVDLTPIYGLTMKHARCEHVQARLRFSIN
Briefly: CYP450 inhibition in human liver microsomes, 1A2. Format: in vitro ADME. To be noted: 10 µM. Background: Microsomes from liver hold many membrane-bound enzymes, among them those of drug oxidation.

In general, IC50 refers to the concentration that gives 50% inhibition. Usually inhibition stands for how much of the control response was suppressed. As usually defined, the melting point is the temperature of the solid-liquid transition. As to `COc1ccc(NC(=O)Nc2ccc(/C=C/C(=O)NO)cc2)cc1` [Compound 6c, (E)-N-hydroxi-3-(4-(3-(4-methoxyphenyl)ureido)phenyl)acrylamide], the melting point was 210 °C (dec.). Further, the IC50 in data set [1] was found to be 13.3 µM. For the same molecule, in data set [2], the inhibition at 1 µM amounted to 69% and the inhibition at 10 µM turned out to be 82%. For the same molecule, in data set [2] (1 µM, read-out: PfHDAC1 residual activity), the remaining activity at 1 µM was 26%. In data set [3], the “Acetylated-H4 level (normalised to unmodified H4)” value was “significant elevation”. The “CYP450% inhibition @ 10 µM 1A2” value in data set [4] came to 32%.
As for `COc1ccc(NC(=O)Nc2ccc(CCC(=O)NO)cc2)cc1` [Compound 7c, N-hydroxy-3-(4-(3-(4-methoxyphenyl)ureido)phenyl)propanamide], the melting point was 202 to 204 °C. In data set [1], the 50% inhibitory concentration (IC50) is > 50 µM. For the same molecule, in data set [2], the inhibition at 1 µM is ~50% and the inhibition at 10 µM stood at 88%. Further, in data set [4], the “CYP450% inhibition @ 10 µM 1A2” value turned out to be 22%.
Consider `O=C(Nc1ccccc1)Nc1ccc(C(=O)NO)cc1` [Compound 8a, N-hydroxy-4-(3-phenylureido)bezamide], for which the melting point was 304 °C (dec.). In addition, the IC50 in data set [1] was 56 µM. For the same molecule, in data set [4], the “CYP450% inhibition @ 10 µM 1A2” value is recorded as 48%.
On to `O=C(Nc1ccc(Cl)cc1)Nc1ccc(C(=O)NO)cc1` [Compound 8b, 4-(3-(4-chlorophenyl)ureido)-N-hydroxybenzamide], for which the melting point is 357 °C (dec.). The IC50 in data set [1] is > 200 µM. The “CYP450% inhibition @ 10 µM 1A2” value in data set [4] stood at 42%.
Take `COc1ccc(NC(=O)Nc2ccc(C(=O)NO)cc2)cc1` [Compound 8c, N-hydroxy-4-(3–4(-methoxyphenyl)ureido)benzamide]: the IC50 in data set [1] was > 200 µM. Further, the inhibition at 1 µM in data set [2] is ~50%. Further, the “Acetylated-H4 level (normalised to unmodified H4)” value in data set [3] is “significant elevation”. Besides, the “CYP450% inhibition @ 10 µM 1A2” value in data set [4] was “* (Inhibition < 10%)”.
For the molecule `O=C(Nc1ccc(C(=O)NO)cc1)Nc1ccc([N+](=O)[O-])cc1` [Compound 8d, N-hydroxy-4-(3-(4-nitrophenyl)ureido)benzamide], the melting point was 312 °C (dec.). Besides, the IC50 in data set [1] is 54 µM. In addition, in data set [4], the “CYP450% inhibition @ 10 µM 1A2” value is recorded as “* (Inhibition < 10%)”.
